{
  "source": "patent US7666658B1",
  "about": "“Antibody catalysis of enantio- and diastereo-selective aldol reactions” (The Scripps Research Institute, priority 1999, dated 2010)",
  "origin": "cited, not measured here",
  "conditions": "retro-aldolization of fructose-1,6-bisphosphate, reported at 4° C.",
  "data": [
    {"substance": "muscle aldolase: nature's muscle aldolase, natural enzyme cleaving fructose-1,6-bisphosphate", "values": [
      {"measurement": "efficiency", "result": "4.9×10^4 s^−1M^−1"}
    ]}
  ]
}
